Our source for the AC50 values is ChEMBL document CHEMBL5291721, “A preclinical secondary pharmacology resource illuminates target-adverse drug reaction associations of marketed drugs” (Nat Commun, 2023).

The target of one test is T1, Thromboxane A2 receptor (Homo sapiens, UniProt P21731).
T1 sequence (P21731 whole entry): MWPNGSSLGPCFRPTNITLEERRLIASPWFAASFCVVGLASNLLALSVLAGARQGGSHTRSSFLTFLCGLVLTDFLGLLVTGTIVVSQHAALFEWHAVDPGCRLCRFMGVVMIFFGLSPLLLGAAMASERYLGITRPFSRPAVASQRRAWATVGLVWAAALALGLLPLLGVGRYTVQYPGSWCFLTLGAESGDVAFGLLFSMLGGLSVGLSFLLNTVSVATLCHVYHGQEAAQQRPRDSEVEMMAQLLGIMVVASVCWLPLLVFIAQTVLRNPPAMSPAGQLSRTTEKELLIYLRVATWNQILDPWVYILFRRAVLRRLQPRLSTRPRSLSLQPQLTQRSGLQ
It counts as functional, cell-based.

The target of test [1] is T2, 5-hydroxytryptamine receptor 1A (Homo sapiens, UniProt P08908).
T2 sequence (P08908 whole entry): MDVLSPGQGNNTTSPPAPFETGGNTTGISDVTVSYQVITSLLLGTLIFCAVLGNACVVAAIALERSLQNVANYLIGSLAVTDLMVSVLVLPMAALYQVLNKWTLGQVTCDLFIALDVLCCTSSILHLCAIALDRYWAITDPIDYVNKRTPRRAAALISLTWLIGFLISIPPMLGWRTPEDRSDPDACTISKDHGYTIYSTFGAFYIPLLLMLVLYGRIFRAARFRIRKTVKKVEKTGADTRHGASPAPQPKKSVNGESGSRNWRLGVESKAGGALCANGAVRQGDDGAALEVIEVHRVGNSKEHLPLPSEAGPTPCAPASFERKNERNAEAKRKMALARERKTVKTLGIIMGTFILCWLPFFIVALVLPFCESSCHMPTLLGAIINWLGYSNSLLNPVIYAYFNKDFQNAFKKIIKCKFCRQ

Another test deals with T3, Estrogen receptor (Homo sapiens, UniProt P03372).
T3 sequence (P03372 whole entry): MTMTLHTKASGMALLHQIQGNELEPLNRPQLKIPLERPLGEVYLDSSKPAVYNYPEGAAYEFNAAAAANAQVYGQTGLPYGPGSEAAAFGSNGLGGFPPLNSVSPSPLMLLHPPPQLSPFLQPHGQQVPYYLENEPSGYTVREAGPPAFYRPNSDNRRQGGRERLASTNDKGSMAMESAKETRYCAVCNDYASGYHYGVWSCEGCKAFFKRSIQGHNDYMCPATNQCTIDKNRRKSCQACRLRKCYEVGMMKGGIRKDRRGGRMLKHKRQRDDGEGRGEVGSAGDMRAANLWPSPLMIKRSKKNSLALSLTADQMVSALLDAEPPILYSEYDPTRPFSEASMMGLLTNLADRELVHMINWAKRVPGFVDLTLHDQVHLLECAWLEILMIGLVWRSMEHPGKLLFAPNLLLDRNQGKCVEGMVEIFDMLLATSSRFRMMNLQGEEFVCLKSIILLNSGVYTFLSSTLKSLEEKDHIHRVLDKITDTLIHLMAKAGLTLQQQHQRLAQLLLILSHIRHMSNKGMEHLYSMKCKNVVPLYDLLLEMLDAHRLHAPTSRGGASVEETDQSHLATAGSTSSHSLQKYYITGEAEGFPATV

For test [2], the target named is Gamma-aminobutyric acid receptor subunit alpha-1/alpha-2/beta-2/gamma-2 (Homo sapiens, UniProt P14867+P18507+P47869+P47870). In kind it is protein-complex assay.
The target of test [3] is T4, Muscarinic acetylcholine receptor M1 (Homo sapiens, UniProt P11229).
T4 sequence (P11229 whole entry): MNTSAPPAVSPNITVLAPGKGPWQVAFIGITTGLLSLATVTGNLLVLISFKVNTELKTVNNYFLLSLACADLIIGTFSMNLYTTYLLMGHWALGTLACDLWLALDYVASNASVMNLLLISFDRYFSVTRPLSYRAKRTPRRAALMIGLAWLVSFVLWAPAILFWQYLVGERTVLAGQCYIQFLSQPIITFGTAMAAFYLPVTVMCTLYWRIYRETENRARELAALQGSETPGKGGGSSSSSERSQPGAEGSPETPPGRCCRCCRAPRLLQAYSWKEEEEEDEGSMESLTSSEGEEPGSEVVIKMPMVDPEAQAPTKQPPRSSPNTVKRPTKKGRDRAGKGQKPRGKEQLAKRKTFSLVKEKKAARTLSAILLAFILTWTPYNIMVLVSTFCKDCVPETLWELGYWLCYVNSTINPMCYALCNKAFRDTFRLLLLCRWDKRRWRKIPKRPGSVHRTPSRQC
In kind it is functional, cell-based.

Test [4] deals with Gamma-aminobutyric acid receptor subunit alpha-1 (Rattus norvegicus, UniProt P62813).
The target of test [5] is Neuronal acetylcholine receptor subunit alpha-4 (Homo sapiens, UniProt P43681).
Note: assay procedure not described here.

Neuronal acetylcholine receptor subunit alpha-4, sequence (P43681 whole entry): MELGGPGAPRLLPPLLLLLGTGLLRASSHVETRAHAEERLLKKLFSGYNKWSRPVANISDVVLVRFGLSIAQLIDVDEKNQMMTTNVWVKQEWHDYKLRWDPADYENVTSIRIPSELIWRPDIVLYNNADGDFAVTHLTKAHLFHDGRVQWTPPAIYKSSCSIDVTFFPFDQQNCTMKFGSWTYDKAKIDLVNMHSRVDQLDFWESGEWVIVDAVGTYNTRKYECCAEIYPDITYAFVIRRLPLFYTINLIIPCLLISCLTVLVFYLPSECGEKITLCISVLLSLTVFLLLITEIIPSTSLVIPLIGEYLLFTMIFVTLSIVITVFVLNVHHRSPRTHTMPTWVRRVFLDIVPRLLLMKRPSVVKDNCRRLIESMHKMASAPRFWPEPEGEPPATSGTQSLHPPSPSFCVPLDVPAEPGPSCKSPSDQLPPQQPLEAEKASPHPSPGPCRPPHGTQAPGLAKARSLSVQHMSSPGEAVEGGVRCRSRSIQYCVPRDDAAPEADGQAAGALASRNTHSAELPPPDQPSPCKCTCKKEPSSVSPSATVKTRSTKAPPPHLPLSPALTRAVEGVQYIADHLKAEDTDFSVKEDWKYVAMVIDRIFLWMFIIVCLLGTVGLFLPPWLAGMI
Gamma-aminobutyric acid receptor subunit alpha-1, sequence (P62813 whole entry): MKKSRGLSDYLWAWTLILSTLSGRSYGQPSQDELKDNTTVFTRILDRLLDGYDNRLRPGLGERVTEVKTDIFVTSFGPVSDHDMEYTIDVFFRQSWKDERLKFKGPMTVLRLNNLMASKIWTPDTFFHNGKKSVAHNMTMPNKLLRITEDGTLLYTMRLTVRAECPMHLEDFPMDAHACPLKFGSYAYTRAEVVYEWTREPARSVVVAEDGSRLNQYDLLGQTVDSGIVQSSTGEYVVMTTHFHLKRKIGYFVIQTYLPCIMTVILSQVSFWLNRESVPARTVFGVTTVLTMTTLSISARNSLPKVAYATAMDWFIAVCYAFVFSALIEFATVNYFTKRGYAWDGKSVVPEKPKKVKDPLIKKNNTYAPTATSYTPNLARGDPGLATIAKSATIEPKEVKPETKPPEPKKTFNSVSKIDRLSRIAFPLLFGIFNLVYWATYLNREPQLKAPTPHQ
Gamma-aminobutyric acid receptor subunit alpha-1/alpha-2/beta-2/gamma-2, sequence (P14867 whole entry): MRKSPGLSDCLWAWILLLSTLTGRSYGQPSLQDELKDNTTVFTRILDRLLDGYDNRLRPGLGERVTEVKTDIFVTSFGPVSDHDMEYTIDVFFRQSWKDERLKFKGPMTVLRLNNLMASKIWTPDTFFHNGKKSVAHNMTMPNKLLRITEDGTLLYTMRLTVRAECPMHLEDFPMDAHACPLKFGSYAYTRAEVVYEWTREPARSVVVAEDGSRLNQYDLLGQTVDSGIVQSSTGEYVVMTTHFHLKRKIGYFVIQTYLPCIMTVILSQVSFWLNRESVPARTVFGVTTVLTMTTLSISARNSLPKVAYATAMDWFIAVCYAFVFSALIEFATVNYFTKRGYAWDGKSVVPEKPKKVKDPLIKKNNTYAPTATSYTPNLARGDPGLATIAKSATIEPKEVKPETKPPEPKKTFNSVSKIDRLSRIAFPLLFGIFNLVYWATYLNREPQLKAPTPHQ
Gamma-aminobutyric acid receptor subunit alpha-1/alpha-2/beta-2/gamma-2, sequence (P47870 whole entry): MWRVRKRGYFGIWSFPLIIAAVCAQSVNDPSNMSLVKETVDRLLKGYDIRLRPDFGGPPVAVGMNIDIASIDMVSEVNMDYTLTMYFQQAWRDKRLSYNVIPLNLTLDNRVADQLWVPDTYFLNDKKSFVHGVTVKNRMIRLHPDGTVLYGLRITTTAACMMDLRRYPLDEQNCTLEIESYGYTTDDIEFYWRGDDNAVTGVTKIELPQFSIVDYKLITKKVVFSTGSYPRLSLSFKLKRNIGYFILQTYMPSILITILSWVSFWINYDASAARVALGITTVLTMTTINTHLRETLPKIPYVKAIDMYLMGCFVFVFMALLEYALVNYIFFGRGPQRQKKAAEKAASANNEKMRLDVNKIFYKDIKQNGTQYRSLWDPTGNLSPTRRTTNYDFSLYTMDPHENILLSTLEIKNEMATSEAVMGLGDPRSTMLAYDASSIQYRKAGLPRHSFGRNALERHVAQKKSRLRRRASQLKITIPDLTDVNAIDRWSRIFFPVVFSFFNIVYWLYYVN
Gamma-aminobutyric acid receptor subunit alpha-1/alpha-2/beta-2/gamma-2, sequence (P18507 whole entry): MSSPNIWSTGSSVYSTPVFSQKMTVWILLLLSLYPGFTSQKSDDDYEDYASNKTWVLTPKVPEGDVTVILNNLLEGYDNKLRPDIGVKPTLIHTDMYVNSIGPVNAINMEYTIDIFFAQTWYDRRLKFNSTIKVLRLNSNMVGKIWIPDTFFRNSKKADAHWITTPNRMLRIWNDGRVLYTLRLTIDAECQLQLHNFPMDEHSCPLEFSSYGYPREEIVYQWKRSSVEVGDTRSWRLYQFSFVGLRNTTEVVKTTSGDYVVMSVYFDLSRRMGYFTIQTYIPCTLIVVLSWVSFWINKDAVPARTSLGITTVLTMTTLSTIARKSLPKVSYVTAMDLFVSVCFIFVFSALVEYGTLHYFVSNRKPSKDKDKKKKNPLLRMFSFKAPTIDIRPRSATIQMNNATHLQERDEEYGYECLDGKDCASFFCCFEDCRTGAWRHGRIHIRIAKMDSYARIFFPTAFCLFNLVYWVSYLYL
Gamma-aminobutyric acid receptor subunit alpha-1/alpha-2/beta-2/gamma-2, sequence (P47869 whole entry): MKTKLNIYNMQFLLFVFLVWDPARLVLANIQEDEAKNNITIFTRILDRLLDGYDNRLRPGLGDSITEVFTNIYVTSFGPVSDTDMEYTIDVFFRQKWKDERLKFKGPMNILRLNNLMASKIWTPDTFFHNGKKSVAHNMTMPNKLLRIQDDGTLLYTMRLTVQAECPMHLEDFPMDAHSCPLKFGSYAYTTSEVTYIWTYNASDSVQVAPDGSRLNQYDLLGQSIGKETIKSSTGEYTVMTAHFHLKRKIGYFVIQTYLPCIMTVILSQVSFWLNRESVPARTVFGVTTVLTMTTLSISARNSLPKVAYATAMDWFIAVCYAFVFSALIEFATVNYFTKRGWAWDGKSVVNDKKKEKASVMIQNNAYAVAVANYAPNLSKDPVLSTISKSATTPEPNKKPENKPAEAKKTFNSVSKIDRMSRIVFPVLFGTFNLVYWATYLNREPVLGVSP

For `CC(=O)Oc1c(C)c(C)c2c(c1C)CC[C@@](C)(CCC[C@H](C)CCC[C@H](C)CCCC(C)C)O2`, the AC50 (on Thromboxane A2 receptor; in test [1]; on Estrogen receptor; in test [2]; in test [3]) was over 30 µM each time.

In the case of `CCC(CC)(CC(=O)Nc1cccc(/C=C/c2nc(C3CCC3)cs2)c1)C(=O)O`, the AC50 – broadly, the concentration at which the activity in the assay is half-maximal – on Thromboxane A2 receptor was over 3 µM; in test [1] it was over 30 µM; at Estrogen receptor, over 30 µM; in test [4] it was over 30 µM; in test [5], over 30 µM; in test [3], over 3 µM.

As to `CCOC(=O)[C@H](CCc1ccccc1)N[C@@H](C)C(=O)N1CC2(C[C@H]1C(=O)O)SCCS2`, the AC50 (on Thromboxane A2 receptor; in test [1]; in test [2]; in test [3]) was over 30 µM in each case.

Regarding `CC(=O)c1ccc2c(c1)N(CCCN(C)C)c1ccccc1S2` [ACEPROMAZINE], the AC50 is 13.7 µM on Thromboxane A2 receptor; 0.248 µM in test [1]; over 30 µM on Estrogen receptor; over 30 µM in test [2]; 0.151 µM in test [3].

On to `N=c1ccn2c(n1)O[C@H]1[C@H](O)[C@@H](CO)O[C@H]12` [ANCITABINE], for which the concentration at half-maximal activity (AC50) (at Thromboxane A2 receptor; in test [1]; on Estrogen receptor; in test [2]; in test [3]) was over 30 µM throughout.

Take `CCCNC(C)C(=O)Nc1c(C)csc1C(=O)OC` (stereo unspecified) [ARTICAINE]: the half-maximal activity concentration (AC50) (at Thromboxane A2 receptor; at Estrogen receptor; in test [2]; in test [3]) was over 30 µM throughout.

Consider `CCCC1O[C@@H]2C[C@H]3[C@@H]4CCC5=CC(=O)C=C[C@]5(C)[C@H]4[C@@H](O)C[C@]3(C)[C@]2(C(=O)CO)O1` (stereo partly specified) [BUDESONIDE], for which the AC50 on Thromboxane A2 receptor was over 30 µM; in test [1], over 30 µM; in test [2] it was over 30 µM; in test [5] it was over 10 µM.

Regarding `CC(C)(C)C(=O)C(Oc1ccc(Cl)cc1)n1ccnc1` (stereo unspecified) [CLIMBAZOLE], the concentration at half-maximal activity (AC50) on Thromboxane A2 receptor is over 30 µM; in test [1], over 30 µM; on Estrogen receptor it was over 30 µM; in test [2] it was over 30 µM; in test [3] it was 10.2 µM.

Take `NNc1nnc(NN)c2ccccc12` [DIHYDRALAZINE]: the half-maximal activity concentration (AC50) (on Thromboxane A2 receptor; in test [1]; at Estrogen receptor; in test [2]; in test [3]) was over 30 µM throughout.

In the case of `CC(C)C[C@H]1C(=O)N2CCC[C@H]2[C@]2(O)O[C@](NC(=O)[C@@H]3C[C@@H]4c5cccc6[nH]cc(c56)C[C@H]4N(C)C3)(C(C)C)C(=O)N12` [DIHYDROERGOCRYPTINE], the AC50 on Thromboxane A2 receptor is over 30 µM; in test [1] it was 0.0125 µM; at Estrogen receptor, over 30 µM; in test [2] it was over 30 µM; in test [3], over 30 µM.

For the compound `CCN(CC)CCOC(=O)C(c1ccccc1)C1CCCCC1` (stereo unspecified) [DROFENINE], the AC50 is over 30 µM at Thromboxane A2 receptor; 2.71 µM in test [1]; over 30 µM at Estrogen receptor; over 30 µM in test [2]; 0.0078 µM in test [3].

For the compound `COc1ccc(C(=O)Nc2ccccc2CCC2CCCCN2C)cc1` (stereo unspecified) [ENCAINIDE], the concentration at half-maximal activity (AC50) was over 30 µM on Thromboxane A2 receptor; over 30 µM in test [1]; over 30 µM at Estrogen receptor; over 30 µM in test [4]; over 10 µM in test [5]; over 30 µM in test [3].

Regarding `NC1=NCC2c3ccccc3Cc3ccccc3N12` (stereo unspecified) [EPINASTINE], the AC50 on Thromboxane A2 receptor was over 30 µM; in test [1], 1.28 µM; in test [2] it was 28.3 µM; in test [3], over 30 µM.

For the compound `CC(=O)Oc1ccc2c(c1)CC[C@@H]1[C@@H]2CC[C@]2(C)[C@@H](O)CC[C@@H]12` [ESTRADIOL ACETATE], the half-maximal activity concentration (AC50) on Thromboxane A2 receptor was 13.1 µM; in test [1], over 30 µM; in test [2] it was over 30 µM; in test [3], 7.24 µM.

For the compound `O=c1[nH]c(=O)n([C@H]2C[C@H](O)[C@@H](CO)O2)cc1F` [FLOXURIDINE], the concentration at half-maximal activity (AC50) (on Thromboxane A2 receptor; in test [1]; at Estrogen receptor; in test [2]) was over 30 µM in each case.

For the compound `CCN(CC)CCNc1ccc(CO)c2sc3ccccc3c(=O)c12` [HYCANTHONE], the AC50 on Thromboxane A2 receptor was 23.1 µM; in test [1] it was 7.25 µM; at Estrogen receptor, over 30 µM; in test [4], over 30 µM; in test [3], 17.6 µM.

Consider `O=c1[nH]c(=O)n([C@H]2C[C@H](O)[C@@H](CO)O2)cc1I` [IDOXURIDINE], for which the AC50 (at Thromboxane A2 receptor; in test [1]; in test [2]) was over 30 µM in each case.

For the compound `O=[N+]([O-])O[C@@H]1CO[C@H]2[C@@H]1OC[C@@H]2O` [ISOSORBIDE MONONITRATE], the concentration at half-maximal activity (AC50) (on Thromboxane A2 receptor; in test [1]; at Estrogen receptor; in test [4]; in test [3]) was over 30 µM in each case.

For the compound `CCN(CC)CCc1nc(-c2ccccc2)no1` [OXOLAMINE], the AC50 at Thromboxane A2 receptor was over 30 µM; in test [1], 15.5 µM; on Estrogen receptor it was over 30 µM; in test [4] it was over 30 µM; in test [3] it was over 30 µM.

Regarding `CC(C)(C)C(=O)OCOC(=O)[C@@H]1N2C(=O)[C@@H](NC(=O)[C@H](N)c3ccccc3)[C@H]2SC1(C)C` [PIVAMPICILLIN], the half-maximal activity concentration (AC50) was over 30 µM at Thromboxane A2 receptor; over 30 µM in test [1]; over 30 µM on Estrogen receptor; over 30 µM in test [4]; 23 µM in test [3].

On to `CC(C)COC(=O)OCN1C(=O)CN(CCN2CC(=O)N(COC(=O)OCC(C)C)C(=O)C2)CC1=O` [SOBUZOXANE], for which the AC50 (at Thromboxane A2 receptor; in test [1]; on Estrogen receptor; in test [4]; in test [3]) was over 30 µM each time.

As for `Cc1cc(NS(=O)(=O)c2ccc(N)cc2)nc(C)n1` [SULFISOMIDINE], the AC50 (at Thromboxane A2 receptor; in test [1]; on Estrogen receptor; in test [4]; in test [3]) was over 30 µM in each case.

As for `COc1cc2c3cc1Oc1cc(ccc1O)C[C@@H]1c4c(cc(OC)c(O)c4Oc4ccc(cc4)C[C@@H]3N(C)CC2)CC[N+]1(C)C` [TUBOCURARINE], the concentration at half-maximal activity (AC50) (on Thromboxane A2 receptor; in test [1]; in test [2]) was over 30 µM each time.

Turning to `COC1=C(OC)C(=O)C(C/C=C(\C)CC/C=C(\C)CC/C=C(\C)CC/C=C(\C)CC/C=C(\C)CC/C=C(\C)CC/C=C(\C)CC/C=C(\C)CC/C=C(\C)CCC=C(C)C)=C(C)C1=O` [UBIDECARENONE], the concentration at half-maximal activity (AC50) (on Thromboxane A2 receptor; in test [1]; at Estrogen receptor; in test [4]; in test [3]) was over 30 µM each time.

For the compound `OC[C@@H](O)[C@H](O)[C@@H](O)CO` [XYLITOL], the AC50 (on Thromboxane A2 receptor; in test [1]; in test [2]; in test [3]) was over 30 µM in each case.
